PubChem BioAssay AID248 (DTP/NCI, 2004)
Where “and” joins values, the source holds several entries; their conditions need not be identical. Equal values may be shown once. Toxic doses and inconclusive results are not listed. No stated cut-off is given here; in the data, active means T/C of 150% or more; inactive means T/C below 125%.

Test system: L1210 leukemia ip in BDF1 mice, survival T/C
Assay: NCI In Vivo Anticancer Drug Screen. Data for tumor model L1210 Leukemia (intraperitoneal) in B6D2F1 (BDF1) mice
Conditions: endpoint: mean survival time, higher = longer survival
Outline: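 Read-out is survival time, reported as the treated-group measurement over the vehicle-control measurement.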

[1] = dose: 100.0 mg/kg/injection, schedule: Q04DX003 (ip), vehicle: saline with Tween-80
[2] = dose: 200.0 mg/kg/injection, schedule: Q04DX003 (ip), vehicle: saline with Tween-80
[3] = dose: 400.0 mg/kg/injection, schedule: Q04DX003 (ip), vehicle: saline with Tween-80
[4] = dose: 50.0 mg/kg/injection, schedule: Q01DX009 (ip), vehicle: Klucel (hydroxypropylcellulose) (HPC)
[5] = dose: 100.0 mg/kg/injection, schedule: Q01DX009 (ip), vehicle: Klucel (hydroxypropylcellulose) (HPC)
[6] = dose: 100.0 mg/kg/injection, schedule: Q04DX003 (ip), vehicle: Klucel (hydroxypropylcellulose) (HPC)
[7] = dose: 200.0 mg/kg/injection, schedule: Q04DX003 (ip), vehicle: Klucel (hydroxypropylcellulose) (HPC)
[8] = dose: 5.0 mg/kg/injection, schedule: Q01DX001 (ip), vehicle: saline
[9] = dose: 10.0 mg/kg/injection, schedule: Q01DX001 (ip), vehicle: saline
[10] = dose: 20.0 mg/kg/injection, schedule: Q01DX001 (ip), vehicle: saline
[11] = dose: 100.0 mg/kg/injection, schedule: Q01DX009 (ip), vehicle: saline with Tween-80
[12] = dose: 200.0 mg/kg/injection, schedule: Q01DX009 (ip), vehicle: saline with Tween-80
[13] = dose: 200.0 mg/kg/injection, schedule: Q01DX009 (ip), vehicle: Klucel (hydroxypropylcellulose) (HPC)
[14] = dose: 400.0 mg/kg/injection, schedule: Q04DX003 (ip), vehicle: Klucel (hydroxypropylcellulose) (HPC)
[15] = dose: 400.0 mg/kg/injection, schedule: Q01DX001 (ip), vehicle: water

Measured: T/C

NN(C(=O)c1ccccc1)C1CCCCC1
inactive: [1] 104 % of control | [2] 96 % of control | [3] 96 % of control

Cc1ccc(NC(=S)NN)cc1C
inactive: [4] 94 % of control | [5] 100 % of control | [6] 94 % of control | [7] 97 % of control

CCO/C(=C\[P+](c1ccccc1)(c1ccccc1)c1ccccc1)c1ccccc1
inactive: [8] 90 % of control | [9] 93 % of control | [10] 95 % of control | dose: 40.0 mg/kg/injection, schedule: Q01DX001 (ip), vehicle: saline 95 % of control

CC(C)NC(=O)Oc1cccc(NC(=O)N(C)C)c1
inactive: [11] 93 % of control | [12] 93 % of control | dose: 400.0 mg/kg/injection, schedule: Q01DX009 (ip), vehicle: saline with Tween-80 93 % of control

COC(=O)[C@@H]1c2cc3c(c(O)c2[C@@H](OC)C[C@@]1(C)O)C(=O)c1c(O)cc2c(c1C3=O)OC1O[C@@]2(C)[C@H](O)[C@@H](N(C)C)[C@@H]1O
inactive: dose: 3.12 mg/kg/injection, schedule: Q01DX015 (ip), vehicle: carboxymethylcellulose (CMC) 104 % of control | dose: 6.25 mg/kg/injection, schedule: Q01DX009 (ip), vehicle: saline 106 % of control | dose: 6.25 mg/kg/injection, schedule: Q01DX015 (ip), vehicle: carboxymethylcellulose (CMC) 108 % of control | dose: 12.5 mg/kg/injection, schedule: Q01DX009 (ip), vehicle: saline 112 % of control | dose: 12.5 mg/kg/injection, schedule: Q01DX015 (ip), vehicle: carboxymethylcellulose (CMC) 120 % of control | dose: 25.0 mg/kg/injection, schedule: Q01DX009 (ip), vehicle: saline 109 % of control | dose: 50.0 mg/kg/injection, schedule: Q01DX001 (ip), vehicle: carboxymethylcellulose (CMC) 105 % of control | dose: 50.0 mg/kg/injection, schedule: Q01DX009 (ip), vehicle: saline 112 % of control | dose: 50.0 mg/kg/injection, schedule: Q01DX015 (ip), vehicle: carboxymethylcellulose (CMC) 122 % of control | dose: 100.0 mg/kg/injection, schedule: Q01DX001 (ip), vehicle: carboxymethylcellulose (CMC) 117 % of control

COC(=O)CCC(=O)Nc1ccccc1C(C)=O
inactive: [1] 104 % of control | [2] 93 % of control | [3] 93 % of control

CCC(O)C1CCCCN1 (centres undefined)
inactive: [1] 91 % of control | [2] 104 % of control

COc1ccc(NC2=NCCS2)cc1
inactive: dose: 50.0 mg/kg/injection, schedule: Q01DX009 (ip), vehicle: saline with Tween-80 95 % of control | [11] 95 % of control | [12] 96 % of control

CN1CN(c2ccccc2)C2(CCN(C(=O)/C=C/c3ccc(F)cc3)CC2)C1=O
inactive: dose: 75.0 mg/kg/injection, schedule: Q04DX003 (ip), vehicle: Klucel (hydroxypropylcellulose) (HPC) 92 % of control | dose: 150.0 mg/kg/injection, schedule: Q04DX003 (ip), vehicle: Klucel (hydroxypropylcellulose) (HPC) 88 % of control

CC(=O)N(N=O)c1ccc(N(N=O)C(C)=O)cc1
inactive: [8] 106 % of control | [9] 97 % of control | [10] 112 % of control

O=C(Nc1cc(S(=O)(=O)O)cc2cc(S(=O)(=O)O)c(N=Nc3ccc([As](=O)(O)O)cc3)c(O)c12)c1ccc([N+](=O)[O-])cc1
inactive: dose: 200.0 mg/kg/injection, schedule: Q04DX003 (ip), vehicle: saline sonified 92 % of control

COc1ccc(Cl)cc1NC(=O)c1cccc(C(=O)Nc2cc(Cl)ccc2OC)c1
inactive: [5] 92 % of control | [6] 94 % of control | [13] 93 % of control | [7] 94 % of control | dose: 400.0 mg/kg/injection, schedule: Q01DX009 (ip), vehicle: Klucel (hydroxypropylcellulose) (HPC) 104 % of control | [14] 92 % of control

CCCCCCCC(=O)Nc1ccc(C)cc1
inactive: [4] 97 % of control | [5] 95 % of control | [6] 99 % of control | [13] 98 % of control | [7] 98 % of control

CN(CCCl)CC1C(c2ccccc2)C1c1ccccc1 (centres undefined)
inactive: dose: 25.0 mg/kg/injection, schedule: Q04DX002 (ip), vehicle: Klucel (hydroxypropylcellulose) (HPC) 103 % of control | dose: 50.0 mg/kg/injection, schedule: Q04DX002 (ip), vehicle: Klucel (hydroxypropylcellulose) (HPC) 111 % of control | dose: 100.0 mg/kg/injection, schedule: Q04DX002 (ip), vehicle: Klucel (hydroxypropylcellulose) (HPC) 107 % of control and 111 % of control

CC12CCC(O)CC1CCC1C3CCCC(=O)C3CCC12 (centres undefined)
inactive: dose: 50.0 mg/kg/injection, schedule: Q01DX009 (sc), vehicle: steriod suspending solution 103 % of control | dose: 100.0 mg/kg/injection, schedule: Q01DX009 (sc), vehicle: steriod suspending solution 97 % of control | dose: 200.0 mg/kg/injection, schedule: Q01DX009 (sc), vehicle: steriod suspending solution 94 % of control

CC(=O)OCCN1C(=O)c2ccccc2C1=O
inactive: [6] 104 % of control | [7] 117 % of control | [14] 101 % of control

CCO/C=N/NC(=O)CNC(=O)C=[N+]=[N-]
inactive: dose: 180.0 mg/kg/injection, schedule: Q01DX001 (ip), vehicle: water 100 % of control and 116 % of control | dose: 270.0 mg/kg/injection, schedule: Q01DX001 (ip), vehicle: water 101 % of control and 117 % of control | [15] 105 % of control and 117 % of control | dose: 600.0 mg/kg/injection, schedule: Q01DX001 (ip), vehicle: water 106 % of control and 111 % of control

COC(=O)C(CCC(=O)O)NC(=O)OCc1ccccc1 (centres undefined)
inactive: dose: 25.0 mg/kg/injection, schedule: Q01DX009 (ip), vehicle: Klucel (hydroxypropylcellulose) (HPC) 89 % of control | dose: 50.0 mg/kg/injection, schedule: Q01DX001 (ip), vehicle: Klucel (hydroxypropylcellulose) (HPC) 94 % of control | [4] 97 % of control | dose: 100.0 mg/kg/injection, schedule: Q01DX001 (ip), vehicle: Klucel (hydroxypropylcellulose) (HPC) 103 % of control | [6] 96 % of control | dose: 200.0 mg/kg/injection, schedule: Q01DX001 (ip), vehicle: Klucel (hydroxypropylcellulose) (HPC) 97 % of control | [7] 86 % of control

CC(C)NC(C)c1c[nH]c2ccccc12 (centres undefined)
inactive: dose: 12.5 mg/kg/injection, schedule: Q04DX003 (ip), vehicle: Klucel (hydroxypropylcellulose) (HPC) 101 % of control | dose: 25.0 mg/kg/injection, schedule: Q04DX003 (ip), vehicle: Klucel (hydroxypropylcellulose) (HPC) 97 % of control | dose: 50.0 mg/kg/injection, schedule: Q04DX003 (ip), vehicle: Klucel (hydroxypropylcellulose) (HPC) 103 % of control

O=c1oc(-c2cc([N+](=O)[O-])ccc2Cl)nc2ccccc12
inactive: [1] 100 % of control | [2] 93 % of control

CN(C)c1ccc(/C=C/C=N/Nc2nnc(N/N=C/C=C/c3ccc(N(C)C)cc3)c3ccccc23)cc1
inactive: dose: 50.0 mg/kg/injection, schedule: Q01DX001 (ip), vehicle: other 109 % of control | dose: 100.0 mg/kg/injection, schedule: Q01DX001 (ip), vehicle: other 100 % of control | dose: 200.0 mg/kg/injection, schedule: Q01DX001 (ip), vehicle: other 103 % of control | dose: 400.0 mg/kg/injection, schedule: Q01DX001 (ip), vehicle: other 100 % of control

O=c1c(=O)c2ccccc2c(=O)/c1=N/Nc1ccccc1
inactive: dose: 100.0 mg/kg/injection, schedule: Q01DX001 (ip), vehicle: water 98 % of control | dose: 200.0 mg/kg/injection, schedule: Q01DX001 (ip), vehicle: water 95 % of control | [15] 97 % of control

CC(O)C(Cc1ccccc1)NC(=O)C(=O)NC(Cc1ccccc1)C(C)O (centres undefined)
inactive: [6] 95 % of control | [7] 90 % of control | [14] 92 % of control

CC(=O)Nc1cc(Cl)cc(Cl)c1
inactive: [1] 100 % of control | [2] 102 % of control | [3] 96 % of control

Cc1ccc(C(=O)O)cc1
inactive: [11] 90 % of control | [12] 88 % of control

O=[N+]([O-])c1ccc2c(c1)c(-c1cccc3ccccc13)nc1ccccc12
inactive: [1] 95 % of control | [2] 93 % of control | [3] 91 % of control

Cc1ccc(N2C=Nc3ccc(C)cc3C2)cc1
inactive: [5] 92 % of control | dose: 100.0 mg/kg/injection, schedule: Q04DX003 (ip), vehicle: other 107 % of control | [13] 104 % of control | dose: 200.0 mg/kg/injection, schedule: Q04DX003 (ip), vehicle: other 90 % of control
